Consider one molecule from article PMC5462828 (Scientific Reports, 2017).

Entries after “also recorded” stand apart in the source; their conditions may differ.

The test system of test [1] is RXFP1. The test is described as follows: cAMP accumulation in human primary vascular cells and cardiac fibroblasts. Type of test: cell-based. Conditions: HUAEC, cells known not to express cell surface RXFP1; 30 min. As for the experimental part:
(§1) cAMP and cGMP accumulation was determined as previously described, [16]. Briefly, HEK293 cells were plated in 96-well plates (5 × 10^4 cells/well) and human primary cells were plated into 24-well plates (1 × 10^5 cells/well) and grown overnight to achieve a confluent monolayer. Prior to stimulation, HEK cells were serum-starved in DMEM containing 0.5% FBS v/v and primary cells were serum-starved in M199 medium for 4–6 hours. Where appropriate, cells were pre-incubated with mSIRK (5 μM, 30 min), mSIRK control peptide L9A (5 μM, 30 min), gallein (100 μM, 30 min), Wortmannin (100 nM, 30 min), NF023 (10 μM, 30 min) and NF449 (10 μM, 30 min). Levels of cAMP and cGMP were detected according to the manufacturer’s instructions (Perkin-Elmer, Australia).

Test [2] addresses T1, RXFP1 (Homo sapiens, UniProt Q9HBX9).
T1 sequence (Q9HBX9 1-757): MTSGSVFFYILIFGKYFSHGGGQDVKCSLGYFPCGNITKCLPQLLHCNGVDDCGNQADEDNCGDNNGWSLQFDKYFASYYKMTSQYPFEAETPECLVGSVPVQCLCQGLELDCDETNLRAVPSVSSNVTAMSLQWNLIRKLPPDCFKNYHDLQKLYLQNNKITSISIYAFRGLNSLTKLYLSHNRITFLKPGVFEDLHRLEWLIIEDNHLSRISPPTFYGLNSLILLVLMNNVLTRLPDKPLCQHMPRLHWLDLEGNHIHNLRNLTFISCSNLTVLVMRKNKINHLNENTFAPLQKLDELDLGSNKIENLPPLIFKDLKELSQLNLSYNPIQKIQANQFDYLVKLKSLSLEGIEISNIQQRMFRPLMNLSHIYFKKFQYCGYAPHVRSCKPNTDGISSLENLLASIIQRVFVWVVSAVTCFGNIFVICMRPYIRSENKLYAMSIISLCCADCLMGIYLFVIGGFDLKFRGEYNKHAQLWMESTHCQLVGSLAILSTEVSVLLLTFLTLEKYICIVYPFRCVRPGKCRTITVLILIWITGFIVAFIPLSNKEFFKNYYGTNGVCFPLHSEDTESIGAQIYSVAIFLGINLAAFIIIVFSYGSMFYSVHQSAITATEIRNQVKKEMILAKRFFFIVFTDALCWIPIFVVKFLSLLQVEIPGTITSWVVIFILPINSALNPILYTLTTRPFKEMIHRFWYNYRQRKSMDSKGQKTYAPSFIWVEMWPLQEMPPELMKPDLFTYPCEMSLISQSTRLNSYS
The test is described as above. It is filed as cell-based. As to conditions: for Emax: 30 min. Here is the method: as §1

The target in test [3] is T1, RXFP1. The test is described as follows: p38MAPK phosphorylation (Surefire) in HEK-RXFP1 cells. It is filed as cell-based. Also noted: expressed in transfected cells; host or cells: HEK293T / HEK293 cells stably expressing RXFP1 (HEK-RXFP1). Here is the method:
(§2) p-ERK1/2, p-p38MAPK and p-JNK1/2 was measured using the Surefire ERK, p38 and JNK kits (TGR BioSciences, Australia) as described previously, [16]. Briefly, HEK-RXFP1 cells were plated into 96-well plates (5 × 10^4 cells/well) and primary cells grown in 24-well plates (1 × 10^5 cells/well) overnight to achieve a confluent monolayer. Prior to stimulation, HEK293 cells were serum-starved with DMEM containing 0.5% (v/v) FBS and primary cells in M199 medium for 4–6 hours. […] Levels of p-ERK1/2, p-p38MAPK and p-JNK1/2/3 were detected as per manufacturer’s instructions (Perkin-Elmer, Australia).

The next test concerns human RXFP1. Conditions: cited from earlier work.
Test [4] deals with ML290-mediated cAMP accumulation. The test is described as follows: Effect of signalling pathway inhibitors on ML290-mediated cAMP accumulation in human primary vascular cells. Type of test: cell-based. Here is the method:
cAMP and cGMP accumulation was determined as previously described, [16]. Briefly, HEK293 cells were plated in 96-well plates (5 × 10^4 cells/well) and human primary cells were plated into 24-well plates (1 × 10^5 cells/well) and grown overnight to achieve a confluent monolayer. Prior to stimulation, HEK cells were serum-starved in DMEM containing 0.5% FBS v/v and primary cells were serum-starved in M199 medium for 4–6 hours. […] Levels of cAMP and cGMP were detected according to the manufacturer’s instructions (Perkin-Elmer, Australia).

Test [5] addresses T1, RXFP1. The test is described as follows: p38MAPK phosphorylation (Surefire) in human primary vascular cells. Type of test: cell-based. Also noted: In human primary vascular endothelial and smooth muscle cells that endogenously express RXFP1. As to conditions: 15 min. As for the experimental part: as §2
For a further test, the system named is T2, RXFP1 and GαoB.
T2 construct: forward primer encodes M-D-S-K-G-S-S, not the native RXFP1 start (N); expressed in transfected cells; host or cells: HEK293T cells stably expressing RXFP1-Rluc8, transiently co-transfected with the G protein subunits
The test is described as follows: Real-time kinetic BRET, RXFP1-Rluc8 / GαoB. It is filed as cell-based, human. Conditions: HEK293T co-expressing RXFP1-Rluc8, Gγ2-Venus, Gβ1, GαoB; H2 relaxin 100 nM, ML290 100 nM or 10 μM. As for the experimental part: HEK293 cell were seeded in 6-well plates at a density of 600,000 cells per well and transfected with constructs encoding the tagged receptors and signalling proteins. 24 h later cells were harvested in HEPES-buffered phenol red-free medium containing 5% FBS and plated out in a white 96-well plate (Nunc) that was incubated at 37 °C under 5% CO2. BRET assays were performed 48 h after transfection as described previously, [52]. Medium was replaced with phenol-red-free-DMEM supplemented with 5% FBS plus 5 μM coelenterazine h. BRET measurements were made at 37 °C using the PHERAstar Omega plate reader with Omega software (BMG LABTECH, Germany). Filtered light emissions were simultaneously measured in each of the “donor wavelength window” (475 ± 15 nm for Rluc8 with coelenterazine h) and “acceptor wavelength window” (535 ± 15 nm for Venus). Cells were assayed before and after treatment with ligands or 5% FBS phenol-red-free-DMEM medium containing 0.01% w/v BSA (vehicle). The BRET signal was calculated as previously described.

Regarding `CC(C)Oc1ccccc1C(=O)Nc1ccccc1C(=O)Nc1cccc(S(=O)(=O)C(F)(F)F)c1` [ML290, 2-Isopropoxy-N-(2-(3-(trifluoromethylsulfonyl)phenylcarbamoyl)phenyl) benzamide], the cAMP accumulation entry in the test on RXFP1 [1] was “did not cause cAMP accumulation”. For the same molecule, the Emax was 11.7% on RXFP1 [2] (HUVEC, read-out: cAMP accumulation efficacy (Emax), HUVEC); 17.9% on RXFP1 [2] (read-out: cAMP accumulation efficacy (Emax), HCAEC); 11.9% at RXFP1 [2] (read-out: cAMP accumulation efficacy (Emax), HUASMC); 16.9% at RXFP1 [3] (15 min, read-out: p-p38MAPK efficacy (Emax) (converted)); 4.4% at RXFP1 [5] (read-out: p-p38MAPK efficacy (Emax), HUASMC); 2.7% on RXFP1 [5] (read-out: p-p38MAPK efficacy (Emax), HUVSMC). In addition, the “potency for cAMP accumulation, less potent than H2 relaxin” value on RXFP1 [2] (human primary vascular cells) is on record as 3 orders of magnitude. Further, the “p38MAPK phosphorylation, time course” value on RXFP1 [3] (up to 45 min, H2 relaxin 100 nM, ML290 100 nM or 10 μM) is “increased p38MAPK phosphorylation”. Also, the “competition for 125I-H2 relaxin binding” value with human RXFP1 was “does not compete”. Further, the “ML290-mediated cAMP accumulation, ML290 alone” value in test [4] (HCAECs, ML290 10 μM, 30 min) is 22.5 ± 5.5 % response to 50 μM forskolin; in test [4] (HUASMCs, control of NF449 and mSIRK experiments) it was 18.8 ± 4.3 % response to 50 μM forskolin; in test [4] (HUASMCs, control of gallein and Wortmannin experiments), 16.7 ± 3.4 % response to 50 μM forskolin; in test [4] (HUVECs, ML290 10 μM, 30 min), 16.4 ± 2.5 % response to 50 μM forskolin; in test [4] (HUVSMCs, control of NF449 and mSIRK experiments) it was 18.8 ± 8.0 % response to 50 μM forskolin; in test [4] (HUVSMCs, control of gallein and Wortmannin experiments) it was 12.6 ± 2.4 % response to 50 μM forskolin. For the same molecule, the “ligand-induced BRET, RXFP1 - GαoB interaction” value in the test on RXFP1 and GαoB is “promoted interactions; also recorded: moved in the opposite direction to that to H2 relaxin”.
